We go through 17 molecules from the supplement of paper PMC9265050, “Inhibition of RNA Binding in SND1 Increases the Levels of miR-1-3p and Sensitizes Cancer Cells to Navitoclax” (Cancers, 2022).

The test deals with SW480. The test can be described thus: drug sensitivity score (DSS, integrated dose-response area); higher = more sensitive (stronger viability reduction); extreme values may be limits of the assay. Put shortly:
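SW480 cells stably carrying doxycycline-inducible control or SND1-targeting shRNA were induced with 0.1 µg/mL doxycycline for 7 days. They were then plated at 1000 cells per well in 384-well plates holding 525 commercially available small-molecule inhibitors at five concentrations. Viability was read with CellTiter-Glo after 72 h. The drug sensitivity score integrates the area under a fitted non-linear dose–response model.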

Where [1] appears, read: shRNA: SND1 shRNA1 (SND1 silenced).
The mark [2] stands for this setting: shRNA: SND1 shRNA2 (SND1 silenced).
Setting [3] is: shRNA: control shRNA (non-targeting).

Turning to `CC/C(=C(\c1ccccc1)c1ccc(OCCN(C)C)cc1)c1ccccc1` [Tamoxifen], the drug sensitivity score amounted to 5 DSS under setting [1], 4.4 DSS under setting [2] and 5.9 DSS under setting [3].

For `Cc1ccc(NC(=O)c2ccc(CN3CC[C@H](N(C)C)C3)c(C(F)(F)F)c2)cc1Nc1nccc(-c2cncnc2)n1` [Bafetinib], the drug sensitivity score is, setting by setting: under setting [1], 0.3 DSS; under setting [2], 0 DSS; under setting [3], 0 DSS.

In turn, `N#CC(c1ccnc(OCc2ccc(CN3CCOCC3)cc2)n1)c1nc2ccccc2s1` (configuration not stated) [Bentamapimod] gave a drug sensitivity score under setting [1] of 2.3 DSS and a drug sensitivity score under setting [3] of 4 DSS.

Regarding `CCCOc1ccn2c(C(C)=O)cc(-c3ccccc3S(C)(=O)=O)c2c1` [GSK2801], the drug sensitivity score is 0 DSS under setting [1], 0 DSS under setting [2] and 0 DSS under setting [3].

As for `CC(=O)O[C@H]1C(=O)[C@@]2(C)[C@H]([C@H](OC(=O)c3ccccc3)[C@]3(O)C[C@H](OC(=O)[C@H](O)[C@@H](NC(=O)c4ccccc4)c4ccccc4)C(C)=C1C3(C)C)[C@]1(OC(C)=O)CO[C@@H]1C[C@@H]2O` [Paclitaxel], the drug sensitivity score reads like this: under setting [1], 11.5 DSS; under setting [2], 12.5 DSS; under setting [3], 14.1 DSS.

Turning to `CCC(C)(C)C(=O)O[C@H]1C[C@@H](C)C=C2C=C[C@H](C)[C@H](CC[C@@H]3C[C@@H](O)CC(=O)O3)[C@H]21` [Simvastatin], the drug sensitivity score by setting is: under setting [1], 1.2 DSS; under setting [3], 4.5 DSS.

With `CCOc1cc2ncc(C#N)c(Nc3ccc(F)c(Cl)c3)c2cc1NC(=O)/C=C/CN(C)C` [Pelitinib], the drug sensitivity score came out at 7.8 DSS under setting [1], 8.6 DSS under setting [2] and 12.3 DSS under setting [3].

Take `CC(=O)N(O)CCCCCNC(=O)CCC(=O)N(O)CCCCCNC(=O)CCC(=O)N(O)CCCCCN` [Deferoxamine]: the drug sensitivity score runs as follows: under setting [1], 8 DSS; under setting [3], 6.1 DSS.

With `O=C(c1cc(Cc2n[nH]c(=O)c3ccccc23)ccc1F)N1CCN(C(=O)C2CC2)CC1` [Olaparib], the drug sensitivity score under setting [1] came to 2.7 DSS, the drug sensitivity score under setting [2] stood at 0 DSS and the drug sensitivity score under setting [3] was found to be 0 DSS.

Consider `Cc1ccc(-c2cc(C(F)(F)F)nn2-c2ccc(S(N)(=O)=O)cc2)cc1` [Celecoxib], for which the drug sensitivity score is 0 DSS under setting [1], 0 DSS under setting [2] and 0 DSS under setting [3].

Turning to `CCN(CC)CCN(Cc1ccc(-c2ccc(C(F)(F)F)cc2)cc1)C(=O)Cn1c(SCc2ccc(F)cc2)nc(=O)c2c1CCC2` [Darapladib], the drug sensitivity score by setting is: under setting [1], 0.1 DSS; under setting [2], 0 DSS; under setting [3], 5.8 DSS.

With `O=C(O)c1ccc(CN2CCC(CN[C@@H]3C[C@H]3c3ccccc3)CC2)cc1`, the drug sensitivity score reads like this: under setting [1], 0 DSS; under setting [2], 8 DSS; under setting [3], 1.2 DSS.

Turning to `C#Cc1cccc(Nc2ncnc3cc(OC)c(OCCCCCCC(=O)NO)cc23)c1` [CUDC-101], the drug sensitivity score runs as follows: under setting [1], 11.3 DSS; under setting [2], 12.6 DSS; under setting [3], 10.7 DSS.

On to `N.N.[Cl][Pt][Cl]` [Cisplatin], for which the drug sensitivity score was determined as 8.1 DSS under setting [1] and 9.2 DSS under setting [3].

`c1ccc(Cn2c(-c3ccc(OC[C@H](C4CCNCC4)n4c(-c5ccccc5)nc5ccccc54)cc3)nc3ccccc32)cc1` [deltarasin] returned a drug sensitivity score under setting [1] of 5.7 DSS, a drug sensitivity score under setting [2] of 6.6 DSS and a drug sensitivity score under setting [3] of 4.4 DSS.

As to `Cc1cc(Nc2ncc(Cl)c(Nc3ccccc3S(=O)(=O)C(C)C)n2)c(OC(C)C)cc1C1CCNCC1` [Ceritinib], the drug sensitivity score under setting [1] was 2.1 DSS, the drug sensitivity score under setting [2] came to 0.8 DSS and the drug sensitivity score under setting [3] is 0.2 DSS.

Regarding `Cc1cnc(Nc2ccc(OCCN3CCCC3)cc2)nc1Nc1cccc(S(=O)(=O)NC(C)(C)C)c1` [Fedratinib], the drug sensitivity score runs as follows: under setting [1], 5.8 DSS; under setting [2], 6.5 DSS; under setting [3], 5.8 DSS.
